Measurements: patent US9850227B2 (YUHAN CORPORATION, priority 2011, dated 2017)
Structures can show the parent of a compound that is named as a salt.

Target: T1, human 5-HT4(a) (Homo sapiens, UniProt Q13639)
T1 construct: host or cells: GeneBIAzer HTR4-CRE-bla CHO-K1 cells
Test: Evaluation of agonistic activity in CHO-K1 cells expressing human 5-HT4(a) (GeneBIAzer HTR4-CRE-bla CHO-K1 cells, beta-lactamase fluorescence ratio, EC50 from 8 concentrations)
Format: cell-based
Method in brief: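 HTR4-CRE-bla CHO-K1 cells (10^4 per well, overnight in 1% FBS medium) exposed to compound for 5 h, then beta-lactamase substrate 2 h in the dark. Fluorescence ratio at 465/535 nm after 410 nm excitation; EC50 by non-linear regression over 8 concentrations.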

T1 sequence (Q13639 1-387 isoform Q13639-2): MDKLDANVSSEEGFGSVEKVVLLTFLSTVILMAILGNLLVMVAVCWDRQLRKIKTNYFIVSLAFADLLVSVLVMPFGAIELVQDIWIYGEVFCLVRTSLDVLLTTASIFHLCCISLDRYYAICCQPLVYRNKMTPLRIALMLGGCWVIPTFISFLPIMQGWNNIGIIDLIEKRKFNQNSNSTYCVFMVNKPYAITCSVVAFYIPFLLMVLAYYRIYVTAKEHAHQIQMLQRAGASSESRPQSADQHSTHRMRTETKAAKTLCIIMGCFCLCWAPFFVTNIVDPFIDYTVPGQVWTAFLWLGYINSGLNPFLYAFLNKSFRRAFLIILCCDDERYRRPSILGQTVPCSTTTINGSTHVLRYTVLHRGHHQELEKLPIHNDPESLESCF

Row | EC50 [pM] | SMILES
1 | 240 | CCCc1cc(N2CCCC3CCCCC32)nc(Nc2cccc(C#N)c2)n1 (stereo not drawn) [Example 187, 3-[4-(octahydroquinolin-1(2H)-yl)-6-propylpyrimidin-2-ylamino]benzonitrile]
2 | 25 | CCCc1cc(N2CCCCC2CCO)nc(Nc2ccc(F)c(N)c2)n1 (stereo not drawn) [Example 181, 2-{1-[2-(3-amino-4-fluorophenylamino)-6-propylpyrimidin-4-yl]piperidin-2-yl}ethanol]
3 | 108 | CCCCc1cc(N2CCC[C@@H](N)C2)nc(Nc2ccc(F)c(C#N)c2)n1 [Example 294, (R)-5-[4-(3-aminopiperidin-1-yl)-6-butylpyrimidin-2-ylamino]-2-fluorobenzonitrile]
4 | 26 | CCCc1cc(N2CCC[C@@H](NC)C2)nc(Nc2ccc(F)c(C(F)(F)F)c2)n1 [Example 287, (R)-(4-fluoro-3-trifluoromethylphenyl)-[4-(3-methylaminopiperidin-1-yl)-6-propylpyrimidin-2-yl]amine]
5 | 71 | CCCc1cc(N2CCC[C@@H](NCC3CC3)C2)nc(Nc2ccc(F)c(C#N)c2)n1 [Example 226, (R)-5-{4-[3-(cyclopropylmethylamino)piperidin-1-yl]-6-propylpyrimidin-2-ylamino}-2-fluorobenzonitrile]
6 | 2.4 | CCCc1cc(N2CCCC(NCC)C2)nc(Nc2ccc(C)c(C#N)c2)n1 (stereo not drawn) [Example 297, 5-[4-(3-ethylaminopiperidin-1-yl)-6-propylpyrimidin-2-ylamino]-2-methylbenzonitrile dihydrochloride]
7 | 270 | CCCc1cc(N2CCCCC2CCO)nc(Nc2ccc3c(C)cc(=O)oc3c2)n1 (stereo not drawn) [Example 146, 7-{4-[2-(2-hydroxyethyl)piperidin-1-yl]-6-propylpyrimidin-2-ylamino}-4-methyl-2H-chromen-2-one]
8 | 190 | CCCCc1cc(N2CCCCC2CCO)nc(Nc2ccc(F)cc2)n1 (stereo not drawn) [Example 22, 2-{1-[6-butyl-2-(4-fluorophenylamino)pyrimidin-4-yl]piperidin-2-yl}ethanol]
9 | 4.6 | CCCc1cc(N2CCC[C@@H](NCC3CC3)C2)nc(Nc2ccc(N)c(C(F)(F)F)c2)n1 [Example 230, (R)—N^1-{4-[3-(cyclopropylmethylamino)piperidin-1-yl]-6-propylpyrimidin-2-yl}-3-(trifluoromethyl)benzene-1,4-diamine]
10 | 73 | CCCc1cc(N2CCC[C@@H](NC)C2)nc(Nc2ccc(F)c(C#N)c2)n1 [Example 282, (R)-2-fluoro-5-[4-(3-methylaminopiperidin-1-yl)-6-propylpyrimidin-2-ylamino]benzonitrile]
11 | 240 | CCCc1cc(N2CCCCC2CC)nc(Nc2ccc(Cl)c([N+](=O)[O-])c2)n1 (stereo not drawn) [Example 101, N-(4-chloro-3-nitrophenyl)-4-(2-ethylpiperidin-1-yl)-6-propylpyrimidin-2-amine]
12 | 17 | CCCCc1cc(N2CCC[C@@H](N)C2)nc(Nc2ccc(C)c([N+](=O)[O-])c2)n1 [Example 339, (R)-4-(3-aminopiperidin-1-yl)-6-butyl-N-(4-methyl-3-nitrophenyl)pyrimidin-2-amine]
13 | 11 | CCCc1cc(N2CCNC[C@H]2C)nc(Nc2ccc(C)c([N+](=O)[O-])c2)n1 [Example 122, (R)-N-(4-methyl-3-nitrophenyl)-4-(2-methylpiperazin-1-yl)-6-propylpyrimidin-2-amine]
14 | 23 | CCCc1cc(N2CCC[C@@H](NCC(C)(C)C)C2)nc(Nc2ccc(C)c(C#N)c2)n1 [Example 211, (R)-2-methyl-5-{4-[3-(neopentylamino)piperidin-1-yl]-6-propylpyrimidin-2-ylamino}benzonitrile]
15 | 218 | CCCCc1cc(N2CCC[C@@H](NC)C2)nc(Nc2ccc(C)c(F)c2)n1 [Example 331, (R)-4-butyl-N-(3-fluoro-4-methylphenyl)-6-[3-(methylamino)piperidin-1-yl]pyrimidin-2-amine]
16 | 328 | CCCc1cc(N2CCC[C@@H](N)C2)nc(Nc2ccc3cc[nH]c3c2)n1 [Example 264, (R)—N-[4-(3-aminopiperidin-1-yl)-6-propylpyrimidin-2-yl]-1H-indol-6-amine]
17 | 14 | CCCCc1cc(N2CCC[C@@H](N)C2)nc(Nc2ccc(F)c(N)c2)n1 [Example 349, (R)—N^1-[4-(3-aminopiperidin-1-yl)-6-butylpyrimidin-2-yl]-4-fluorobenzene-1,3-diamine]
18 | 14 | CCCCc1cc(N2CCC[C@@H](NC(C)=O)C2)nc(Nc2cc(N)cc(C(F)(F)F)c2)n1 [Example 237, (R)—N-{1-[2-(3-amino-5-trifluoromethylphenylamino)-6-butylpyrimidin-4-yl]piperidin-3-yl}acetamide]
19 | 125 | CCCc1cc(N2CCC[C@H](NCc3cccs3)C2)nc(Nc2ccc(C)c(C#N)c2)n1 [Example 160, (S)-2-methyl-5-(4-propyl-6-{3-[(thiophen-2-ylmethyl)amino]piperidin-1-yl}pyrimidin-2-ylamino)benzonitrile]
20 | 29 | CCCCCN[C@@H]1CCCN(c2cc(CCC)nc(Nc3ccc(C)c(C#N)c3)n2)C1 [Example 208, (R)-2-methyl-5-{4-[3-(pentylamino)piperidin-1-yl]-6-propylpyrimidin-2-ylamino}benzonitrile]

Row | EC50 [pM] | SMILES
21 | 5 | CCCc1cc(N2CCC[C@@H](NC)C2)nc(Nc2ccc(N)c(C(F)(F)F)c2)n1 [Example 285, (R)—N^1-[4-(3-methylaminopiperidin-1-yl)-6-propylpyrimidin-2-yl]-3-(trifluoromethyl)benzene-1,4-diamine]
22 | 448 | CCCCc1cc(N2CCC[C@@H](N)C2)nc(Nc2ccc(C)c(F)c2)n1 [Example 344, (R)-4-(3-aminopiperidin-1-yl)-6-butyl-N-(3-fluoro-4-methylphenyl)pyrimidin-2-amine]
23 | 93 | CCCc1cc(N2CCNC[C@H]2C)nc(Nc2ccc(F)c([N+](=O)[O-])c2)n1 [Example 121, (R)-N-(4-fluoro-3-nitrophenyl)-4-(2-methylpiperazin-1-yl)-6-propylpyrimidin-2-amine]
24 | 6 | CCCc1cc(N2CCC[C@@H](NC(C)=O)C2)nc(Nc2cc(N)cc(C#N)c2)n1 [Example 274, (R)—N-{1-[2-(3-amino-5-cyanophenylamino)-6-propylpyrimidin-4-yl]piperidin-3-yl}acetamide]
25 | 320 | CCCc1cc(N2CCCC3CCCCC32)nc(Nc2ccc(F)c([N+](=O)[O-])c2)n1 (stereo not drawn) [Example 189, N-(4-fluoro-3-nitrophenyl)-4-(octahydroquinolin-1(2H)-yl)-6-propylpyrimidin-2-amine]
26 | 12 | CCCCc1cc(N2CCC[C@@H](NC(C)=O)C2)nc(Nc2ccc(F)c(C#N)c2)n1 [Example 240, (R)—N-{1-[6-butyl-2-(3-cyano-4-fluorophenylamino)pyrimidin-4-yl]piperidin-3-yl}acetamide]
27 | 2.6 | CCCCc1cc(N2CCC[C@@H](NC)C2)nc(Nc2ccc(C)c(C#N)c2)n1 [Example 311, (R)-5-({4-butyl-6-[3-(methylamino)piperidin-1-yl]pyrimidin-2-yl}amino)-2-methylbenzonitrile]
28 | 18 | CCCc1cc(N2CCCCC2CCO)nc(Nc2ccc(N)c([N+](=O)[O-])c2)n1 (stereo not drawn) [Example 176, 2-{1-[2-(4-amino-3-nitrophenylamino)-6-propylpyrimidin-4-yl]piperidin-2-yl}ethanol]
29 | 4.1 | CCCCc1cc(N2CCC[C@@H](N)C2)nc(Nc2cc(N)cc(C#N)c2)n1 [Example 342, (R)-3-amino-5-{[4-(3-aminopiperidin-1-yl)-6-butylpyrimidin-2-yl]amino}benzonitrile]
30 | 8.4 | CCCc1cc(N2CCC[C@@H](NC)C2)nc(Nc2ccc(C)c(C#N)c2)n1 [Example 283, (R)-2-methyl-5-[4-(3-methylaminopiperidin-1-yl)-6-propylpyrimidin-2-ylamino]benzonitrile]
31 | 270 | CCCc1cc(N2CCCCC2)nc(Nc2ccc(Cl)c([N+](=O)[O-])c2)n1 [Example 45, N-(4-chloro-3-nitrophenyl)-4-(piperidin-1-yl)-6-propylpyrimidin-2-amine]
32 | 8.7 | CCCc1cc(N2CCC[C@@H](NC)C2)nc(Nc2ccc(C)c(C(F)(F)F)c2)n1 [Example 324, (R)—N-[4-methyl-3-(trifluoromethyl)phenyl]-4-[3-(methylamino)piperidin-1-yl]-6-propylpyrimidin-2-amine]
33 | 49 | CCCc1cc(N2CCC[C@@H](N)C2)nc(Nc2ccc(C)c([N+](=O)[O-])c2)n1 [Example 265, (R)-4-(3-aminopiperidin-1-yl)-N-(4-methyl-3-nitrophenyl)-6-propylpyrimidin-2-amine]
34 | 4.9 | CCCc1cc(N2CCNC[C@H]2C)nc(Nc2ccc(N)c([N+](=O)[O-])c2)n1 [Example 128, (R)-N^1-[4-(2-methylpiperazin-1-yl)-6-propylpyrimidin-2-yl]-3-nitrobenzene-1,4-diamine]
35 | 96 | CCCc1cc(N2CCNC[C@H]2C)nc(Nc2cccc(C#N)c2)n1 [Example 82, (R)-3-[4-(2-methylpiperazin-1-yl)-6-propylpyrimidin-2-ylamino]benzonitrile dihydrochloride]
36 | 14 | CCCCc1cc(N2CCC[C@@H](N)C2)nc(Nc2ccc(F)c([N+](=O)[O-])c2)n1 [Example 338, (R)-4-(3-aminopiperidin-1-yl)-6-butyl-N-(4-fluoro-3-nitrophenyl)pyrimidin-2-amine]
37 | 41 | CCCCN[C@H]1CCCN(c2cc(CCC)nc(Nc3ccc(C)c(C#N)c3)n2)C1 [Example 154, (S)-5-{4-[3-(butylamino)piperidin-1-yl]-6-propylpyrimidin-2-ylamino}-2-methylbenzonitrile]
38 | 140 | CCCc1cc(N2CCCC3CCCCC32)nc(Nc2cnc3ccccc3c2)n1 (stereo not drawn) [Example 203, N-[4-(octahydroquinolin-1(2H)-yl)-6-propylpyrimidin-2-yl]quinolin-3-amine]
39 | 280 | CCCc1cc(N2CCCCC2CCO)nc(Nc2ccc(C)c(Cl)c2)n1 (stereo not drawn) [Example 140, 2-{1-[2-(3-chloro-4-methylphenylamino}-6-propylpyrimidin-4-yl]piperidin-2-yl}ethanol]
